pKi: −log10 of the molar value.
Target: T1, GST-tagged-Wee1 kinase (Homo sapiens, UniProt P30291)
T1 construct: purchased Carnabio (Carna Biosciences) 05-177
Test: Wee1 time-resolved fluorescence equilibrium binding assay (displacement of Oregon Green-labeled ATP-competitive kinase probe)
Conditions: read-out: Wee-1 inhibition (Ki)
How it was run: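 Ki values derive from competitive displacement, under equilibrium, of a fast-reversible ATP-site Oregon Green kinase probe from GST-tagged Wee1, detected by time-resolved fluorescence.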

T1 sequence (P30291 whole entry): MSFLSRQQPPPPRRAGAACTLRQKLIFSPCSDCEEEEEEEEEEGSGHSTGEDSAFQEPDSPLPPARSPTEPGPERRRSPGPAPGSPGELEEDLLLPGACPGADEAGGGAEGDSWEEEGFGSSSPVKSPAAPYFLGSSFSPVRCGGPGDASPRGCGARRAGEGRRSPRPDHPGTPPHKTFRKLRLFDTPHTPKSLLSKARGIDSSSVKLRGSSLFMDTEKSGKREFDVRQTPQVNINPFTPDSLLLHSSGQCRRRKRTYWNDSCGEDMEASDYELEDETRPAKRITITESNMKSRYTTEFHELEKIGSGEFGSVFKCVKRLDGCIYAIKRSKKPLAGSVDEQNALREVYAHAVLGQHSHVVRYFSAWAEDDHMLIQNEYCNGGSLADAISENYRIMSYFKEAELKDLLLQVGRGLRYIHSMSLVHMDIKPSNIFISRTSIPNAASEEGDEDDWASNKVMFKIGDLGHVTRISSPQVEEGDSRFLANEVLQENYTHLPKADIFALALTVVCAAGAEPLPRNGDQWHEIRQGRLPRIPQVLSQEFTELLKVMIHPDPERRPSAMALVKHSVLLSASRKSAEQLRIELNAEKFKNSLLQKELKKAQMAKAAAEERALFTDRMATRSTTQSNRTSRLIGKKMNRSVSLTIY

SMILES	pKi
COc1cc(Nc2ncc3c(=O)n(-c4ccccc4Cl)c4nccn4c3n2)ccc1OCCN1CCN(C)CC1 [Example 67, 6-(2-chlorophenyl)-2-({3-methoxy-4-[2-(4-methylpiperazin-1-yl)ethoxy]phenyl}amino)imidazo[1,2-a]pyrimido[5,4-e]pyrimidin-5(6H)-one]	> 8.00
CC(=O)N1Cc2cc(Nc3ncc4c(=O)n(-c5c(F)cccc5Cl)c5nccn5c4n3)ccc2C(C)(C)C1 [Example 310, 2-[(2-acetyl-4,4-dimethyl-1,2,3,4-tetrahydroisoquinolin-7-yl)amino]-6-(2-chloro-6-fluorophenyl)imidazo[1,2-a]pyrimido[5,4-e]pyrimidin-5(6H)-one]	> 8.00
COc1cc(Nc2ncc3c(=O)n(-c4ccccc4Cl)c4nccn4c3n2)ccc1N1CCN(C)CC1 [Example 65, 6-(2-chlorophenyl)-2-{[3-methoxy-4-(4-methylpiperazin-1-yl)phenyl]amino}imidazo[1,2-a]pyrimido[5,4-e]pyrimidin-5(6H)-one]	> 8.00
O=c1c2cnc(Nc3ccc(NCCc4c[nH]cn4)cc3)nc2n2ccnc2n1-c1ccccc1Cl [Example 268, 6-(2-chlorophenyl)-2-[(4-{[2-(1H-imidazol-4-yl)ethyl]amino}phenyl)amino]imidazo[1,2-a]pyrimido[5,4-e]pyrimidin-5(6H)-one]	> 8.00
CN1CCN(CCOc2ccc(Nc3ncc4c(=O)n(-c5ccccc5Cl)c5nccn5c4n3)cc2F)CC1 [Example 51, 6-(2-chlorophenyl)-2-({3-fluoro-4-[2-(4-methylpiperazin-1-yl)ethoxy]phenyl}amino)imidazo[1,2-a]pyrimido[5,4-e]pyrimidin-5(6H)-one]	> 8.00
CC(C)C(=O)N1Cc2cc(Nc3ncc4c(=O)n(-c5c(Cl)cccc5Cl)c5nccn5c4n3)ccc2C2(CC2)C1 [Example 274, 6-(2,6-dichlorophenyl)-2-{[2′-(2-methylpropanoyl)-2′,3′-dihydro-1′H-spiro[cyclopropane-1,4′-isoquinolin]-7′-yl]amino}imidazo[1,2-a]pyrimido[5,4-e]pyrimidin-5(6H)-one]	> 8.00
COc1cccc(-n2c(=O)c3cnc(Nc4ccccc4)nc3n3ccnc23)c1C [Example 344, 6-(3-methoxy-2-methylphenyl)-2-(phenylamino)imidazo[1,2-a]pyrimido[5,4-e]pyrimidin-5(6H)-one]	< 7.00
CC(=O)N1CCN(c2ccc(Nc3ncc4c(=O)n(-c5ccccc5Cl)c5nccn5c4n3)cc2)CC1 [Example 13, 2-{[4-(4-acetylpiperazin-1-yl)phenyl]amino}-6-(2-chlorophenyl)imidazo[1,2-a]pyrimido[5,4-e]pyrimidin-5(6H)-one]	> 8.00
O=C1CN(c2ccc(Nc3ncc4c(=O)n(-c5c(Cl)cccc5Cl)c5nccn5c4n3)cc2)CCN1 [Example 143, 6-(2,6-dichlorophenyl)-2-{[4-(3-oxopiperazin-1-yl)phenyl]amino}imidazo[1,2-a]pyrimido[5,4-e]pyrimidin-5(6H)-one]	> 8.00
Nc1ccc(Nc2ncc3c(=O)n(-c4ccccc4Cl)c4nccn4c3n2)cc1 [Example 56, 2-[(4-aminophenyl)amino]-6-(2-chlorophenyl)imidazo[1,2-a]pyrimido[5,4-e]pyrimidin-5(6H)-one]	7.00 to 8.00
O=c1c2cnc(Nc3ccc(N4CCC(O)CC4)cc3)nc2n2ccnc2n1-c1ccccc1Cl [Example 138, 6-(2-chlorophenyl)-2-{[4-(4-hydroxypiperidin-1-yl)phenyl]amino}imidazo[1,2-a]pyrimido[5,4-e]pyrimidin-5(6H)-one]	> 8.00
CCN1C[C@H]2C[C@@H](C1)CN(C(=O)c1ccc(Nc3ncc4c(=O)n(-c5c(Cl)cccc5Cl)c5nccn5c4n3)cc1)C2 [Example 202, 6-(2,6-dichlorophenyl)-2-[(4-{[(1R,5S)-7-ethyl-3,7-diazabicyclo[3.3.1]non-3-yl]carbonyl}phenyl)amino]imidazo[1,2-a]pyrimido[5,4-e]pyrimidin-5(6H)-one]	> 8.00
CC1(C)CN(Cc2cccnc2)Cc2cc(Nc3ncc4c(=O)n(-c5ccccc5Cl)c5nccn5c4n3)ccc21 [Example 131, 6-(2-chlorophenyl)-2-{[4,4-dimethyl-2-(pyridin-3-ylmethyl)-1,2,3,4-tetrahydroisoquinolin-7-yl]amino}imidazo[1,2-a]pyrimido[5,4-e]pyrimidin-5(6H)-one]	> 8.00
CN(C)C1CCN(c2ccc(Nc3ncc4c(=O)n(-c5c(F)cccc5Cl)c5nccn5c4n3)cc2)CC1 [Example 255, 6-(2-chloro-6-fluorophenyl)-2-({4-[4-(dimethylamino)piperidin-1-yl]phenyl}amino)imidazo[1,2-a]pyrimido[5,4-e]pyrimidin-5(6H)-one]	> 8.00
O=C(Nc1ccc(Nc2ncc3c(=O)n(-c4ccccc4Cl)c4nccn4c3n2)cc1)C1CCC(O)CC1 (stereo not drawn) [Example 59, N-(4-{[6-(2-chlorophenyl)-5-oxo-5,6-dihydroimidazo[1,2-a]pyrimido[5,4-e]pyrimidin-2-yl]amino}phenyl)-4-hydroxycyclohexanecarboxamide]	7.00 to 8.00
CC1(C)CN(CC2CC2)Cc2cc(Nc3ncc4c(=O)n(-c5ccccc5Cl)c5nccn5c4n3)ccc21 [Example 130, 6-(2-chlorophenyl)-2-{[2-(cyclopropylmethyl)-4,4-dimethyl-1,2,3,4-tetrahydroisoquinolin-7-yl]amino}imidazo[1,2-a]pyrimido[5,4-e]pyrimidin-5(6H)-one]	> 8.00
O=c1c2cnc(Nc3ccc4c(c3)CC(NC3CC3)C4)nc2n2ccnc2n1-c1c(F)cccc1Cl (stereo not drawn) [Example 227, 6-(2-chloro-6-fluorophenyl)-2-{[2-(cyclopropylamino)-2,3-dihydro-1H-inden-5-yl]amino}imidazo[1,2-a]pyrimido[5,4-e]pyrimidin-5(6H)-one]	> 8.00
COc1ccc(-n2c(=O)c3cnc(Nc4ccc(N5CCN(C)CC5)cc4)nc3n3ccnc23)c(OC)c1 [Example 338, 6-(2,4-dimethoxyphenyl)-2-{[4-(4-methylpiperazin-1-yl)phenyl]amino}imidazo[1,2-a]pyrimido[5,4-e]pyrimidin-5(6H)-one]	< 7.00
C=CCn1c(=O)c2cnc(Nc3ccc(N4CCN(C)CC4)cc3)nc2n2ccnc12 [Example 23, 6-allyl-2-{[4-(4-methylpiperazin-1-yl)phenyl]amino}imidazo[1,2-a]pyrimido[5,4-e]pyrimidin-5(6H)-one]	< 7.00
CS(=O)(=O)N1CCc2cc(Nc3ncc4c(=O)n(-c5c(Cl)cccc5Cl)c5nccn5c4n3)ccc2C1 [Example 330, 6-(2,6-dichlorophenyl)-2-{[2-(methylsulfonyl)-1,2,3,4-tetrahydroisoquinolin-6-yl]amino}imidazo[1,2-a]pyrimido[5,4-e]pyrimidin-5(6H)-one]	> 8.00
CN1CCC(C(=O)Nc2ccc(Nc3ncc4c(=O)n(-c5ccccc5Cl)c5nccn5c4n3)cc2)CC1 [Example 60, N-(4-{[6-(2-chlorophenyl)-5-oxo-5,6-dihydroimidazo[1,2-a]pyrimido[5,4-e]pyrimidin-2-yl]amino}phenyl)-1-methylpiperidine-4-carboxamide]	> 8.00
CS(=O)(=O)N1CC2(CN(c3ccc(Nc4ncc5c(=O)n(-c6c(Cl)cccc6Cl)c6nccn6c5n4)cc3)C2)C1 [Example 303, 6-(2,6-dichlorophenyl)-2-({4-[6-(methylsulfonyl)-2,6-diazaspiro[3.3]hept-2-yl]phenyl}amino)imidazo[1,2-a]pyrimido[5,4-e]pyrimidin-5(6H)-one]	> 8.00
CCCNC1Cc2ccc(Nc3ncc4c(=O)n(-c5c(Cl)cccc5Cl)c5nccn5c4n3)cc2C1 (stereo not drawn) [Example 297, 6-(2,6-dichlorophenyl)-2-{[2-(propylamino)-2,3-dihydro-1H-inden-5-yl]amino}imidazo[1,2-a]pyrimido[5,4-e]pyrimidin-5(6H)-one]	> 8.00
CCc1cc(Nc2ncc3c(=O)n(-c4c(Cl)cccc4Cl)c4nccn4c3n2)ccc1N1CCN(C)CC1 [Example 120, 6-(2,6-dichlorophenyl)-2-{[3-ethyl-4-(4-methylpiperazin-1-yl)phenyl]amino}imidazo[1,2-a]pyrimido[5,4-e]pyrimidin-5(6H)-one]	> 8.00
CCN(CC)CCOc1ccc(Nc2ncc3c(=O)n(-c4ccccc4Cl)c4nccn4c3n2)cc1 [Example 44, 6-(2-chlorophenyl)-2-({4-[2-(diethylamino)ethoxy]phenyl}amino)imidazo[1,2-a]pyrimido[5,4-e]pyrimidin-5(6H)-one]	> 8.00
O=c1c2cnc(Nc3ccc4c(c3)CNCC43CC3)nc2n2ccnc2n1-c1ccc(O)cc1 [Example 205, 2-(2′,3′-dihydro-1′H-spiro[cyclopropane-1,4′-isoquinolin]-7′-ylamino)-6-(4-hydroxyphenyl)imidazo[1,2-a]pyrimido[5,4-e]pyrimidin-5(6H)-one]	> 8.00
CC1(C)CN(CC(F)(F)F)Cc2cc(Nc3ncc4c(=O)n(-c5c(Cl)cccc5Cl)c5nccn5c4n3)ccc21 [Example 170, 6-(2,6-dichlorophenyl)-2-{[4,4-dimethyl-2-(2,2,2-trifluoroethyl)-1,2,3,4-tetrahydroisoquinolin-7-yl]amino}imidazo[1,2-a]pyrimido[5,4-e]pyrimidin-5(6H)-one]	7.00 to 8.00
O=c1c2cnc(Nc3ccc(N4CCN(c5ccccn5)CC4)cc3)nc2n2ccnc2n1-c1ccccc1Cl [Example 247, 6-(2-chlorophenyl)-2-({4-[4-(pyridin-2-yl)piperazin-1-yl]phenyl}amino)imidazo[1,2-a]pyrimido[5,4-e]pyrimidin-5(6H)-one]	> 8.00
O=c1c2cnc(Nc3ccc(N4CCN(C5COC5)CC4)cc3)nc2n2ccnc2n1-c1ccccc1Cl [Example 211, 6-(2-chlorophenyl)-2-({4-[4-(oxetan-3-yl)piperazin-1-yl]phenyl}amino)imidazo[1,2-a]pyrimido[5,4-e]pyrimidin-5(6H)-one]	7.00 to 8.00
O=c1c2cnc(Nc3ccc4c(c3)CC(NC3CC3)C4)nc2n2ccnc2n1-c1c(Cl)cccc1Cl (stereo not drawn) [Example 295, 2-{[2-(cyclopropylamino)-2,3-dihydro-1H-inden-5-yl]amino}-6-(2,6-dichlorophenyl)imidazo[1,2-a]pyrimido[5,4-e]pyrimidin-5(6H)-one]	> 8.00

Source: patent publication US8710065B2, “Tricyclic inhibitors of kinases” (AbbVie Inc., priority 2011, dated 2014)
